From ChEMBL document CHEMBL1142022, “Synthesis and evaluation of diverse analogs of amygdalin as potential peptidomimetics of peptide T” (Bioorg Med Chem Lett, 2005)

Experiments:
Type in all cases: functional
[1] = target: T-cell surface glycoprotein CD4 (Homo sapiens) (UniProt P01730); test: Chemotactic activity of compound measured as function of concentration of 9 uM compared to peptide T,[DA1a]peptide T and amygdalin
[2] = target: T-cell surface glycoprotein CD4 (Homo sapiens) (UniProt P01730); test: Chemotactic activity of compound measured as function of concentration of 10 uM compared to peptide T,[DA1a]peptide T and amygdalin
[3] = target: T-cell surface glycoprotein CD4 (Homo sapiens) (UniProt P01730); test: Chemotactic activity of compound measured as function of concentration of 7 uM compared to peptide T,[DA1a]peptide T and amygdalin
[4] = target: T-cell surface glycoprotein CD4 (Homo sapiens) (UniProt P01730); test: Chemotactic activity of compound measured as function of concentration of 11 uM compared to peptide T,[DA1a]peptide T and amygdalin
[5] = target: T-cell surface glycoprotein CD4 (Homo sapiens) (UniProt P01730); test: Chemotactic activity of compound measured as function of concentration of 6 uM compared to peptide T,[DA1a]peptide T and amygdalin
[6] = target: T-cell surface glycoprotein CD4 (Homo sapiens) (UniProt P01730); test: Chemotactic activity of compound measured as function of concentration of 8 uM compared to peptide T,[DA1a]peptide T and amygdalin

CC(C)(C)C(O[C@@H]1O[C@@H](CO[C@@H]2O[C@@H](CO)[C@@H](O)[C@H](O)[C@@H]2O)[C@@H](O)[C@H](O)[C@@H]1O)c1ccccc1 (stereo not given in full)
Chemotactic index [1]: 0.84

N#CC(O[C@@H]1O[C@H](CO[C@@H]2O[C@H](CO)[C@@H](O)[C@H](O)[C@H]2O)[C@@H](O)[C@H](O)[C@H]1O)c1ccccc1 (single isomer, unassigned)
Chemotactic index [2]: 0.63

NC(=O)[C@H](O[C@@H]1O[C@@H](CO[C@@H]2O[C@@H](CO)[C@@H](O)[C@H](O)[C@@H]2O)[C@@H](O)[C@H](O)[C@@H]1O)c1ccccc1
Chemotactic index [3]: 0.84

COc1ccc(CO[C@@H]2O[C@@H](CO[C@@H]3O[C@@H](CO)[C@@H](O)[C@H](O)[C@@H]3O)[C@@H](O)[C@H](O)[C@@H]2O)c(OC)c1
Chemotactic index [2]: 0.84

C[C@@H](N)C(=O)N[C@@H](CO)C(=O)N[C@H](C(=O)N[C@H](C(=O)N[C@H](C(=O)N[C@@H](CC(N)=O)C(=O)N[C@@H](Cc1ccc(O)cc1)C(=O)N[C@H](C(N)=O)[C@@H](C)O)[C@@H](C)O)[C@@H](C)O)[C@@H](C)O
Chemotactic index [4]: 0.89

O=C(O)[C@H](O[C@@H]1O[C@@H](CO[C@@H]2O[C@@H](CO)[C@@H](O)[C@H](O)[C@@H]2O)[C@@H](O)[C@H](O)[C@@H]1O)c1ccccc1
Chemotactic index [1]: 0.71

C#CC(O[C@@H]1O[C@@H](CO[C@@H]2O[C@@H](CO)[C@@H](O)[C@H](O)[C@@H]2O)[C@@H](O)[C@H](O)[C@@H]1O)c1ccccc1 (stereo not given in full)
Chemotactic index [5]: 0.79

CCC(O[C@@H]1O[C@@H](CO[C@@H]2O[C@@H](CO)[C@@H](O)[C@H](O)[C@@H]2O)[C@@H](O)[C@H](O)[C@@H]1O)c1ccccc1 (stereo not given in full)
Chemotactic index [5]: 0.75

OC[C@@H]1O[C@@H](OC[C@@H]2O[C@@H](OCCc3ccccc3)[C@@H](O)[C@@H](O)[C@@H]2O)[C@@H](O)[C@@H](O)[C@@H]1O
Chemotactic index [1]: 0.7

COc1ccc(CO[C@@H]2O[C@@H](CO[C@@H]3O[C@@H](CO)[C@@H](O)[C@H](O)[C@@H]3O)[C@@H](O)[C@H](O)[C@@H]2O)cc1
Chemotactic index [2]: 0.87

CC(O[C@@H]1O[C@@H](CO[C@@H]2O[C@@H](CO)[C@@H](O)[C@H](O)[C@@H]2O)[C@@H](O)[C@H](O)[C@@H]1O)c1ccccc1 (stereo not given in full)
Chemotactic index [6]: 0.77

OC[C@@H]1O[C@@H](OC[C@@H]2O[C@@H](OCc3ccccc3)[C@@H](O)[C@@H](O)[C@@H]2O)[C@@H](O)[C@@H](O)[C@@H]1O
Chemotactic index [6]: 0.76

OC[C@@H]1O[C@@H](OC[C@@H]2O[C@@H](OCc3ccccc3Br)[C@@H](O)[C@@H](O)[C@@H]2O)[C@@H](O)[C@@H](O)[C@@H]1O
Chemotactic index [2]: 0.94

C[C@H](N)C(=O)N[C@@H](CO)C(=O)N[C@H](C(=O)N[C@H](C(=O)N[C@H](C(=O)N[C@@H](CC(N)=O)C(=O)N[C@@H](Cc1ccc(O)cc1)C(=O)N[C@H](C(=O)O)[C@@H](C)O)[C@@H](C)O)[C@@H](C)O)[C@@H](C)O
Chemotactic index [4]: 1.09

OC[C@@H]1O[C@@H](OC[C@@H]2O[C@@H](OCc3c4ccccc4cc4ccccc34)[C@@H](O)[C@@H](O)[C@@H]2O)[C@@H](O)[C@@H](O)[C@@H]1O
Chemotactic index [6]: 0.94
